Where two headings read alike, the source gives them in different places. Positions of bridges follow the written chain, without caps; N, C: chain ends. Non-standard residues stand in square brackets, D forms with d. Residues, ends and D or L forms follow the SMILES beside them. No end group written: not given here. R8 = C=CCCCCCC[C@@](C)(N)C(=O)O; S5 = C=CCCC[C@](C)(N)C(=O)O
Columns and labels:
[1] = test system: patient-derived glioma lines (BT145, BT147, GB16, GB7, GB42); experiment: Viability of patient-derived GBM cells; assay type: cell-based
Text: FIG. 13A and FIG. 13B show treatment of patient-derived GBM cells with various EGFR inhibitor peptides.
(§1) EGFR is amplified or mutated in more than 40% of glioblastoma multiforme (GBM) tumors. Referring to FIG. 13-14, inhibitor peptides of the present invention were used to treat GBM cells and tumors.

[2] = test system: GBM tumors; experiment: In vivo tumor growth, daily subcutaneous injections of SAH-EJ1; set-up: species or system mice; details: 10 mg/kg daily subcutaneous, vs control mouse
Text: as §1

[3] = biological target: Ecyl EGFR peptide; experiment: ITC binding experiments
[4] = test system: CaMKII; experiment: CaMKII phosphorylation, immunoblot in MDA-MB-468 cells; assay type: cell-based; details: MDA-MB-468, EGF or ionomycin, 15 minutes
Experimental: (a) MDA-MB-468 cells were treated with either 20 μmol/l CP (A-D) or 20 μmol/l EJ1 (E-H) for 0 minutes (A, E), 15 minutes (B, F), 60 minutes (C, G), or 16 hours (D, H). […] (b) BxPC3 cells were serum starved overnight, then treated with 20 μmol/l EJ1 and 50 ng/ml Texas-Red-labeled EGF, and imaged for 30 minutes with an Olympus IX71 deconvolution microscope. Panels A-F are bright field images, D′-F′ are red channel images (Texas-Red-labeled EGF). […] (c) Diagram depicts Ca^2+/CaM-regulated signaling pathway, and inhibitors acting at different targets are indicated. (d) MDA-MB-468 cells were pretreated with 50 μmol/l W-13 (D-F), 10 μmol/l ML-7 (G-I), or 10 μmol/l Y-27632 (J-L) in complete medium at 37° C. for 30 minutes and then treated with vehicle, 20 μmol/l CP, or 20 μmol/l EJ1 in combination with W-13, ML-7, or Y-27632 in complete medium at 37° C. for 15 minutes. Images represent the bright field images. […] Error bars, mean±SD. (f) MDA-MB-468 cells were either in serum-free medium (SF) or stimulated with 100 ng/ml EGF (EGF) and then incubated with water (Vehicle), 20 μmol/l CP, 20 μmol/l EJ1, 2 μmol/l ionomycin, 50 μmol/l W-13, 100 μmol/l KN-93, or EJ1 in combination with ionomycin for 15 minutes. Lysates were immunoblotted with antibodies as indicated. […] Error bars, mean±SD. […]

[5] = test system: SKOV3 cells; experiment: MTT killing of erbB2 positive ovarian cancer cells, one hour treatment; assay type: cell-based
Experimental: The erbB2 positive ovarian cancer cell line, SKOV3 was treated with SAH5-EJ1 for one hour with concentrations between 10 uM and 40 uM.

[6] = Peptide solubility; assay type: physicochemical
Experimental: The EJ peptides were synthesized by GenScript (Scotch Plains, N.J.), delivered lyophilized, and stored at −20° C. Peptides were resuspended as needed at 1 mmol/1 in water and stored for up to 2 weeks at 4° C. EJ1 peptide sequences are shown conjugated to the PTD4 domain ([…] (SEQ ID NO: 110)) in FIG. 6c.

[7] = test system: MDA-MB-468 cells; details: MDA-MB-468, 20 uM peptide, 3 days (FIG. 1)
Experimental: Inhibitor peptides were evaluated on their ability to inhibit growth of triple-negative breast cancer cells MDA-MB-468 (20 uM peptide treatment). […] SEQ ID NO: 13 is […] SEQ ID NO: 14 is […] SEQ ID NO: 15 is […] SEQ ID NO: 16 is […] SEQ ID NO: 17 is […] SEQ ID NO: 18 is […] SEQ ID NO: 19 is […] SEQ ID NO: 20 is […] SEQ ID NO: 21 is […] SEQ ID NO: 22 is […] SEQ ID NO: 23 is […] SEQ ID NO: 24 is […] SEQ ID NO: 25 is […]
(§2) Peptide designations are indicated in the right column. Changes from EJ1 in EJ2-11 are denoted in the second column from the right. (d-j) Cell lines were treated daily with 20 μmol/l EJ1, 20 μmol/l CP, or vehicle (water) for 3 days unless otherwise noted, and cell viability was determined by the MTT assay. Growth rates for vehicle-treated cells were set to 100%, and CP and EJ1 rates were adjusted accordingly. *P<0.05, **P<0.01, ***P<0.001 (Student's t-test). Error bars, mean±SD. (From Hart et al., 2013, Molecular Therapy 21(11):1996-2007, the disclosure of which is incorporated herein in its entirety.)
To do this, we created cell-penetrating peptides to act as dominant-negative “decoys,” thereby inhibiting endogenous jxm interactions. Peptides specific for jxm subdomains were synthesized downstream of the protein transduction domain-4 (PTD4; FIG. 6). Next, the effect of peptide treatment on cell viability was analyzed on the breast cancer cell line MDA-MB-468 by MTT (3-[4,5-dimethylthiazol-2-yl]-2,5-diphenyl tetra-zolium bromide) analysis after 3 days of treatment.
(§3) Protein lysate preparation, immunoprecipitation, and western blotting were performed as described previously. For cross-linking, cells were first incubated according to manufacturer instructions with 3 μmol/l DMS, a membrane-permeable, noncleavable, cross-linking agent (Thermo Scientific, Waltham, Mass.). Cells were analyzed both by the MTT assay following manufacturer's instructions (Sigma) and using a U-Quant Spectrophotometer (Bio-TEK Instruments, Winooski, Vt.).

[8] = test system: AsPC1 cells; details: human, 3 day, 20 μmol/l
Experimental: as §2, §3

[9] = test system: MDA-MB-231 cells; details: human, 3 day, 20 μmol/l
Experimental: as §2, §3

[10] = test system: MIA PaCa-2 cells; details: human, 3 day, 20 μmol/l
Experimental: as §2, §3

[11] = test system: T47D cells; details: human, 3 day, 20 μmol/l
Experimental: as §2, §3

[12] = test system: MMTV-pyMT murine model of breast cancer; experiment: Tumor growth and lung metastasis in MMTV-pyMT transgenic mice; assay type: in vivo, mouse; details: 20 μg/g body weight i.p. daily
Experimental: (a) MMTV-PyMT mice were allowed to develop tumors of 50 mm^3 before being treated once daily (i.p. injection) with indicated doses of Ctrls (20 μg/g CP5 (n=3), PBS (n=2)) and EJ1 (10 μg/g (n=6), 15 μg/g (n=1), and 20 μg/g (n=7), or twice-daily doses of 40 μg/g (n=3)). Peaks represent average total tumor burden growth rate in mm^3 per day for each treatment. Error bars, mean±SD. *P<0.05; **P<0.005, Student's t-test. (b) Control (12 mice (20 μg/g CP5 (n=5), PBS (n=7), n=100 tumors) vs. 20 μg/g EJ1-treated (eight mice, n=72 tumors) individual tumor growth rates and representative tumor images (insets). Mean denoted by horizontal line. **P<0.005, Student's t-test. (c) Mice were treated with 10, 15, or 20 μg/g body weight EJ1 or control for 21 days and tumors were measured twice weekly. Box plots are shown for day 0 (10 μg/g EJ1: n=6 mice, 21 tumors; 15 μg/g EJ1: n=1 mouse, two tumors; 20 μg/g EJ1: n=8 mice, 24 tumors; Ctrls: n=12 mice, 41 tumors) and final day (10 μg/g EJ1: n=6 mice, 46 tumors; 15 μg/g EJ1: n=1 mouse, nine tumors; 20 μg/g EJ1: n=8 mice, 72 tumors; Ctrls: n=12 mice, 100 tumors). […]
Additionally, many resected EJ1-treated tumors were necrotic in appearance compared with those in controls (FIG. 11b (insets)). […] The MMTV-pyMT transgenic mice present with lung metastasis; we therefore evaluated the effects of EJ1 on lung metastasis. […]

## CC[C@H](C)[C@H](NC(=O)[C@H](Cc1c[nH]cn1)NC(=O)[C@H](CCCNC(=N)N)NC(=O)[C@H](CCCNC(=N)N)NC(=O)[C@H](CCCNC(=N)N)NC(=O)[C@H](CCSC)NC(=O)[C@H](Cc1ccccc1)NC(=O)[C@H](C)NC(=O)[C@H](CCCNC(=N)N)NC(=O)[C@H](C)NC(=O)[C@H](CCC(N)=O)NC(=O)[C@H](CCCNC(=N)N)NC(=O)[C@H](C)NC(=O)[C@H](C)NC(=O)[C@H](C)NC(=O)[C@H](CCCNC(=N)N)NC(=O)[C@H](C)NC(=O)[C@@H](N)Cc1ccc(O)cc1)C(=O)N[C@]1(C)CCCCCCC=CCCC[C@@](C)(C(=O)N[C@@H](CC(C)C)C(=O)N[C@@H](CC(C)C)C(=O)N[C@@H](CCC(N)=O)C(=O)N[C@@H](CCC(=O)O)C(=O)N[C@@H](CCCNC(=N)N)C(=O)N[C@@H](CCC(=O)O)C(=O)O)NC(=O)[C@H](CCCNC(=N)N)NC(=O)[C@H](CC(C)C)NC(=O)[C@H]([C@@H](C)O)NC(=O)[C@H](CCCNC(=N)N)NC(=O)[C@H](CCCCN)NC(=O)[C@H](CCCNC(=N)N)NC1=O [SAH-EJ1] (H-YARAAARQARAFMRRRHI[R8]RKRTLR[S5]LLQERE-OH; staple 19-26; N-terminus and C-terminus assumed)
[1]; BT145 and BT147 (FIG. 13A)
  cell viability of patient-derived glioma lines: decrease in viability
[1]; GB16, GB7, GB42 and BT147, 24 hr treatment (FIG. 13B)
  cell viability of patient-derived glioma lines: decrease in viability
[2]
  tumor growth in vivo: growth of the tumor is reduced
[2]; listed as stapled EJ
  tumor growth in vivo: decrease tumor growth
[3]; 100 uM and 150 uM experiments, read-out: Kd, average of both experiments
  Kd: ~2850 nM
[3]; peptide at 100 uM, target at 500 uM, read-out: Kd
  Kd: 2500 nM
[3]; peptide at 150 uM, target at 500 uM, read-out: Kd
  Kd: 3200 nM

## C[C@H](CCC(=O)O)C[C@H](C)C[C@H](C)C(=O)/C=C(\O)[C@H](C)C[C@H](C)C/C=C/[C@@H](C)[C@@H](O)[C@@H](C)[C@@H](O)C[C@@H]1CC[C@@](C)([C@H]2CC[C@@](C)([C@@H](C)O)O2)O1 [ionomycin]
[4]
  CaMKII phosphorylation: induced CaMKII phosphorylation

## SAH5-EJ1: stapled EJ1: PTD4 domain combined with SEQ ID NO: 103 (YARAAARQARAFMRRRHIVRKR[R8]LRRLLQ[S5]RE; staple 23-30 (inferred))
[5]; SKOV3, one hour of treatment
  concentration inducing optimal cell killing: 5.0 to 10.0 µM
[5]; SKOV3, one hour, 10 uM to 40 uM
  cell killing (MTT): all cells were killed

## YARAAARQARAFMAAAHIVAAATLAALLQERE [EJ8]
[6]
  solubility of peptide: insoluble

## YARAAARQARAFMRRRHIVRKRTLRRLLQERE [EJ1]
[7]
  survival rate of cells after 3 days: 5%
[8]
  reduction of cellular viability: 10%
[9]
  reduction of cellular viability: 10%
[10]
  reduction of cellular viability: 1%
[11]
  reduction of cellular viability: 60%
[12]
  toxicity (weight loss, grooming behavior, gross changes to organs upon necropsy): no toxicity

From patent US10066004B2 (ARIZONA CANCER THERAPEUTICS, LLC, priority 2010, dated 2018)
